Results as given in US20250120941A1, “Composition for Promoting the Assimilation of an Oligosaccharide” (MORINAGA MILK INDUSTRY CO., LTD., priority 2021, published 2025).

Key:
[1] = system: intestinal bacteria of infant fecal sample (feces B); assay: Fecal culture: oligosaccharide residual rate in culture supernatant (Test Example 1); assay type: cell-based, human infant
Experimental: Fecal samples were obtained from two healthy infants (feces A from an infant and feces B from an infant). The samples were collected immediately after the defecation and immediately moved to 10° C. or lower under an anaerobic condition. The collected feces were diluted with 10 times the amount of physiological saline within eight hours of the defecation and stored at −80° C. until use.
To imitate the environment of the large intestine, a culture experiment was conducted by the following procedures. Bio Jr. 8 100 mLx8 culture apparatus (BJR-25NA1S-8M manufactured by Biott Corporation) was used, and the operations were according to the instructions of the device. The medium components except for the tocopherols and the oligosaccharides were dissolved in purified water and sterilized in an autoclave. The tocopherols and the oligosaccharides which were dissolved in dimethyl sulfoxide (DMSO, FUJIFILM Wako Pure Chemical Corporation) and in purified water, respectively, and which were then sterilized with a filter were added to the medium after the autoclave treatment. The culture temperature was 37° C., and the anaerobic condition was maintained during the culture period by blowing filter-sterilized CO2 into the culture vessels. […]

[2] = system: bifidobacterial strains in infant fecal samples (feces A, feces B); assay: Fecal culture: bifidobacterial count by quantitative PCR (Test Example 3); assay type: cell-based, human infant; settings: after seven hours of culture, group without tocopherols = 1
Experimental: The feces A and the feces B prepared in Test Example 1 described above were used as fecal samples.
To imitate the environment of the large intestine, a culture experiment was conducted by the following procedures. Bio Jr. 8 100 mLx8 culture apparatus (BJR-25NA1S-8M manufactured by Biott Corporation) was used, and the operations were according to the instructions of the device. The medium components except for the tocopherols and the oligosaccharides were dissolved in purified water and sterilized in an autoclave, and the tocopherols and the oligosaccharides which were dissolved in dimethyl sulfoxide (DMSO, FUJIFILM Wako Pure Chemical Corporation) and in purified water, respectively, and which were then sterilized with a filter were added to the mixture after the autoclave treatment. The culture temperature was 37° C., and the anaerobic condition was maintained during the culture period by blowing filter-sterilized CO2 into the culture vessels. After adjusting the pH to 7.0, 100 μL (10 mg in terms of feces) of the fecal samples, which were diluted with physiological saline, were added, and anaerobic culture was started. To imitate the pH in the large intestine of an infant, the pH was controlled by neutralizing with 1M Na2CO3 when the pH became lower than 5.5 during the culture period. The media were collected 7 hours after starting the culture and centrifuged at 8000 rpm for 3 min at 4° C., and the supernatants and the precipitates were collected.
Using GENE PREP STAR PI-480 automated isolation system (Kurabo Industries Ltd. Japan), DNA was extracted from the precipitates collected in (2). Using the extracted DNA as templates and using the primers of SEQ ID NO: 1 (ctcctggaaacgggtgg) and SEQ ID NO: 2 ([…]), quantitative PCR was conducted with Applied Bio systems 7500 Fast & 7500 Real-Time PCR System (manufactured by Thermo Fisher), and the bacterial counts of bifidobacterial strains were measured. The PCR conditions were 40 cycles of denaturation at 95° C. for 5 seconds, subsequent annealing at 55° C. for 20 seconds and elongation at 72° C. for 30 seconds.
The bacterial counts of bifidobacterial strains after seven hours of culture, which were measured by the quantitative PCR, are shown in Table 5. The bacterial counts are the relative values where the bacterial counts of the groups without the addition of the tocopherols are regarded as 1.

For `C[C@@H]1O[C@@H](O[C@H]2[C@H](O[C@H]3[C@H](O)[C@@H](O)C(O)O[C@@H]3CO)O[C@H](CO)[C@H](O)[C@@H]2O)[C@@H](O)[C@H](O)[C@@H]1O` (stereo partly drawn) [Comparative Example 1, 2′-Fucosyllactose], the “2′-FL Residual Rate” value ([1]; after 7-hr culture, YCFA medium, before culture = 100) was 114 mass %, the “assimilation of 2′-fucosyllactose (in words)” value ([1]; after seven hours of culture) was “remained in the supernatant without being assimilated” and the “bifidobacterial Count (Relative Value)” value ([2]; Feces A) was 1. For the same compound, the “bifidobacterial Count (Relative Value)” value ([2]; Feces B) was 1.
For `CC(=O)N[C@H]1[C@H]([C@H](O)[C@H](O)CO)O[C@@](OC[C@H]2O[C@@H](O[C@H]3[C@H](O)[C@@H](O)[C@H](O)O[C@@H]3CO)[C@H](O)[C@@H](O)[C@H]2O)(C(=O)O)C[C@@H]1O` [Comparative Example 9, 6′-Sialyllactose], the “bifidobacterial Count (Relative Value)” value ([2]; Feces A) was 1 and the “bifidobacterial Count (Relative Value)” value ([2]; Feces B) was 1.
